Measurements as given in PubChem BioAssay (NCI).
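96-well plates; 48 h exposure; 5 concentrations. Endpoints by linear interpolation between flanking doses. Not reached: highest tested concentration assigned. Abbreviation: GI50, concentration required for 50% inhibition of growth. At the TGI there is no net growth.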

How the values were obtained:
Assay in all cases: NCI-60 cell line screen, 48 h
SNB-75 CNS = test system: SNB-75 CNS
A498 renal = test system: A498 renal
HOP-62 NSCLC = test system: HOP-62 NSCLC
SNB-19 CNS = test system: SNB-19 CNS
UO-31 renal = test system: UO-31 renal
UACC-62 melanoma = test system: UACC-62 melanoma
HCC-2998 colon = test system: HCC-2998 colon
NCI-H23 lung = test system: NCI-H23 lung
M14 melanoma = test system: M14 melanoma
SN12C renal = test system: SN12C renal
HOP-92 NSCLC = test system: HOP-92 NSCLC

Row | Compound | TGI (SNB-75 CNS) | TGI (A498 renal) | TGI (HOP-62 NSCLC) | TGI (SNB-19 CNS) | TGI (UO-31 renal) | TGI (UACC-62 melanoma) | TGI (HCC-2998 colon) | TGI (NCI-H23 lung) | TGI (M14 melanoma) | TGI (SN12C renal) | TGI (HOP-92 NSCLC) | GI50 (HOP-92 NSCLC)
1 | O=C1C[C@H]2[C@@H](O1)[C@@H](O)CN1C(=O)c3ccccc3[C@H]21 | > 100 µM | > 100 µM | > 100 µM | > 100 µM | > 100 µM | > 100 µM | > 100 µM | > 100 µM | > 100 µM | > 100 µM |  | 
2 | CCOC(=O)c1ccc(C(=O)/C(C#N)=C2\CCCN2C)[nH]1 | > 100 µM | > 100 µM | > 100 µM | > 100 µM | > 100 µM | > 100 µM | > 100 µM | > 100 µM | > 100 µM | > 100 µM |  | 
3 | CC(=O)OC1O[C@@H](C(C)(C)O)CC[C@@H]1[C@H]1CC[C@@]2(C)C3=C(CC[C@]12C)[C@@]1(C)C[C@@H](OC(=O)CC(C)(O)CC(=O)O)[C@H](OC(C)=O)C(C)(C)C1CC3 (some centres not stated) |  | 33.8 µM | 35.4 µM | 34.6 µM | 29.4 µM | 72.4 µM | 36.8 µM | 36.8 µM | 34.8 µM | 36.2 µM | 30.8 µM | 
4 | CCOP(=O)(O)C(C)(C)NC |  | > 100 µM | > 100 µM | > 100 µM | > 100 µM | > 100 µM | > 100 µM | > 100 µM | > 100 µM | > 100 µM | > 100 µM | 
5 | O=c1cc(-c2ccccc2)[nH]c2c(S)cccc12 | > 100 µM |  | > 100 µM | > 100 µM |  | > 100 µM | > 100 µM | > 100 µM | > 100 µM | > 100 µM | > 100 µM | 
6 | COc1ccc(C(O)c2nccn2C)c(OC)c1 (configuration not stated) | > 100 µM |  | > 100 µM | > 100 µM | > 100 µM | > 100 µM | > 100 µM | > 100 µM | > 100 µM | > 100 µM | > 100 µM | 
7 | CC(C)(C)NC(=O)N1N=C(c2ccccc2)C1c1ccccc1 (configuration not stated) | > 100 µM | > 100 µM |  | > 100 µM | 63.1 µM | > 100 µM | > 100 µM | > 100 µM | > 100 µM | > 100 µM | 65 µM | 
8 | Cn1c(N)c2c3c(sc2nc1=O)CCCC3 | > 75 µM | > 75 µM | > 75 µM | > 75 µM | > 75 µM | > 75 µM | > 75 µM | > 75 µM |  | > 75 µM |  | 
9 | Cc1c(CNc2ccc(C(=O)NC(CC(=O)O)C(=O)O)cc2)ccc2nc(N)nc(N)c12 (configuration not stated) |  | > 1000 µM | > 1000 µM | > 1000 µM | > 1000 µM | > 1000 µM | 21.2 µM | > 1000 µM | > 1000 µM | > 1000 µM | > 1000 µM | > 1000 µM
10 | O=P(O)(Cc1ccccc1)c1ccccc1-c1ccccc1 | > 100 µM |  | > 100 µM | > 100 µM | > 100 µM | > 100 µM | > 100 µM | > 100 µM | > 100 µM | > 100 µM |  | 
11 | CSc1nncc2[nH]c(C)nc12 | > 100 µM | > 100 µM | > 100 µM |  | > 100 µM | > 100 µM | > 100 µM | > 100 µM | > 100 µM | > 100 µM |  | 
12 | COC(=O)c1c(O)ccc2c1c1c(n2Cc2ccc(Cl)cc2Cl)C(=O)c2ccccc2C1 | 58.7 µM | > 100 µM | > 100 µM | > 100 µM | > 100 µM | > 100 µM |  | > 100 µM | > 100 µM | 55.2 µM |  | 
13 | COC(=O)C1C=CN(N(C)C)C2=C1C(=O)c1c(O)cccc1C2=O (configuration not stated) | 3.19 µM | 7.47 µM | 8.42 µM | 5.58 µM | 15.8 µM | 2.37 µM | 3.67 µM | 4.11 µM |  | 3.95 µM |  | 
14 | CCc1nc2ccc(N=NN(C)C)cc2[nH]1 | > 100 µM |  | > 100 µM | > 100 µM | > 100 µM | > 100 µM | > 100 µM | > 100 µM | > 100 µM | > 100 µM |  | 
15 | C[C@@]12CCC3C1C=C1C(=O)c4cc(O)ccc4C(=O)[C@]1(O2)[C@@]3(C)C=O |  | 9.59 µM | 20.2 µM | 18.4 µM | 13.7 µM | 16.6 µM | 9.74 µM | 13.5 µM | 19.9 µM | 8.85 µM | 20.8 µM | 
16 | CC(C)=CCc1c(O)ccc2ccc(=O)oc12 | > 100 µM | > 100 µM |  | > 100 µM | > 95.1 µM | > 100 µM | > 100 µM | > 100 µM |  | > 100 µM | 94.6 µM | 
17 | N#C/C(N)=C(\C#N)NC=NCc1ccccc1 | > 100 µM | > 100 µM | > 100 µM | > 100 µM | > 100 µM | > 100 µM | > 100 µM | > 100 µM | > 100 µM | > 100 µM |  | 
18 | Cc1cc(C)nc(NS(=O)(=O)c2ccc(NNC(=O)c3cccc4c(=O)c5ccccc5[nH]c34)cc2)n1 | 77.7 µM |  | > 100 µM | > 100 µM | > 100 µM | > 100 µM | > 100 µM | > 100 µM | > 100 µM | > 100 µM | 73.8 µM | 
19 | CC(=O)Nc1ccc2cc(C)c(=O)[nH]c2n1 | > 100 µM | > 100 µM |  | > 100 µM | > 100 µM | > 100 µM |  | > 100 µM | > 100 µM | > 100 µM | > 100 µM | 
20 | CC(C)C[C@H]1[C@@H](OCc2ccccc2)COS(=O)N1[C@H](C)c1ccccc1 (some centres not stated) | > 100 µM | 87.2 µM | 67.4 µM | > 100 µM | > 100 µM | > 100 µM |  | > 100 µM | 29.5 µM | 40.1 µM | > 100 µM | 
21 | CC(C)(C)c1cc(C(CO)OCCOCCO)cc(C(C)(C)C)c1O (configuration not stated) | > 100 µM | > 100 µM | > 100 µM | > 100 µM | > 100 µM | > 100 µM |  | > 100 µM | > 100 µM | > 100 µM | > 100 µM | 
22 | O=C(NS(=O)(=O)OCC(Cl)(Cl)Cl)SCCC(F)(F)C(F)(F)C(F)(F)C(F)(F)C(F)(F)C(F)(F)F | 64.6 µM | 61.9 µM | 72.4 µM | 36.2 µM | > 100 µM | 40.6 µM |  | 40.6 µM | 48.6 µM | > 100 µM | 23.4 µM | 
